Entries after “also recorded” stand apart in the source; their conditions may differ.
Legend:
[1] = system: SW480 cells; assay: Cell growth inhibition, XTT assay, SW480; type: cell-based; settings: Homo sapiens, incubation time 72 h
Procedure: Cell viability was evaluated by XTT [35] (SW480 and SW620 cells) or MTT [36] (HEK293 and HCT116 cells) colorimetric assays. Briefly, cells (range 10–30 × 10^3 cells/well) were seeded in 96-well microculture plates and then exposed to increasing concentrations of different compounds (range 0–300 µM) for 48 or 72 h. At the end of the treatment, media were removed and incubated at 37 °C in the dark for 4 h in phosphate-buffered saline (PBS) containing 0.2 mg/mL of sodium 3′-[1-[(phenylamino)-carbonyl]-3,4-tetrazolium]-bis(4-methoxy-6-nitro)benzene-sulfonic acid hydrate (XTT) (Thermo Fisher Scientific, Waltham, MA, USA) or (3-[4,5-dimethylthiazol-2-yl]-2,5 diphenyl tetrazolium bromide (MTT) (Merck, Kenilworth, NJ, USA) and phenazine methosulfate (PMS) at a final concentration of 25 µM. Absorbance at 450 nm and a reference wavelength of 650 nm was then measured using a microplate spectrophotometer (Multiskan FC Microplate Photometer, Thermo Scientific, Waltham, MA, USA). The cell growth inhibition rate was calculated utilizing the following formula: inhibition rate (%) = […], where Control OD is absorbance of negative control and Sample OD is absorbance of the test sample. The IC50 values were determined with GraphPad Prism 5 through constructed dose-response curves.
In vitro cultures of colon cancer cells often present mutations either in the APC gene or in the β-catenin gene. […] Two of these cell lines, colon cancer SW480 and SW620 cells, were used in dose-response experiments. […] We thus tested their growth inhibitory activity on the colon cancer cell line HCT116. In terms of APC and β-catenin, these represent the wt counterparts of SW480 and […]. HCT116 cells express wt APC and are heterozygous for β-catenin, harboring one wild type and one mutant (Ser45del) allele. WNT pathway activity and the survival of HCT116 cells thus depend on DVL and can be affected by FZD and DVL inhibitors. […]

[2] = biological target: T1, NHERF1 PDZ1 domain (Homo sapiens, UniProt O14745); assay: Inhibition of the NHERF1 PDZ1 domain; type: binding; settings: data not shown
T1 sequence (O14745 14-94 limits assumed): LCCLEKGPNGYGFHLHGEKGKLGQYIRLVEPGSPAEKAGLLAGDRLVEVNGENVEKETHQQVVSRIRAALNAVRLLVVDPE

[3] = biological target: T2, DVL1 PDZ domain (Homo sapiens, UniProt O14640); assay: Equilibrium (FRET) competition binding between DVL1 PDZ domain and dansylated TMEM88 C-terminal peptide; settings: compound at 5 µM
T2 sequence (O14640 251-323 limits assumed): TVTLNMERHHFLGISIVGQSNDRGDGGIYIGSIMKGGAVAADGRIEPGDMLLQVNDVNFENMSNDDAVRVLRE
Procedure: Equilibrium binding experiments were performed on a Fluoromax-4 single photon counting spectrofluorometer (Jobin-Yvon, NJ, USA). The buffer used was sodium phosphate 50 mM, DMSO 20% v/v, pH 7.2, and the temperature was set at 25 °C. […] Experiments were performed in the absence and in the presence of 1 µM and 5 µM constant concentration of (S)-2 or (R)-1 enantiomers. Normalized fluorescence collected at 540 nm was fitted using a hyperbolic function.

[4] = system: WNT/β-catenin pathway; assay: Inhibition of TCF/LEF (WRE-GFP reporter) activity in HEK293 cells expressing HA-FZD4; type: cell-based; settings: Homo sapiens, HEK293, 48 h, 48 h treatment, read-out: EC50 ± SD WNT Pathway Inhibition
Procedure: Briefly, Hek293 cells were seeded on black 96-well Optiplates (PerkinElmer, Waltham, MA, USA) at a density of 5 × 10^3/well. After seeding for 16–24 h, cells were co-transfected with the cDNA coding for HA-FZD4 (0.04 µg/well) as well as with the reporter construct WRE-GFP (0.04 µg/well) using Lipofectamine. Hek293 cells were plated and treated with different dilutions of compounds 2, (S)-2 or (R)-1 for 48 h before being fixed and analyzed under a fluorescence microscope. Inhibition of WRE activity was measured by counting the percentage of GFP positive cells. Experiments were performed in triplicate and the standard deviations are indicated.
The activity of the compounds was further assayed in HEK293 cells transiently expressing both HA-FZD4 and the WNT reporter construct WRE-GFP (25). The latter presents the coding sequence of GFP under the control of an optimized WNT responsive element (WRE-wt). When WRE-GFP is transiently transfected in cells, it promotes GFP transcription and translation. The amount of GFP produced by each cell (and thus overall cell-fluorescence) depends on the intracellular levels of WNT pathway activity (Figure 5).

[5] = system: HCT116 cells; assay: ROS quantification with DCFDA probe in HCT116 cells; type: cell-based, human; settings: 48 h treatment, increasing concentrations; % of DMSO control
Procedure: HCT116 cells were grown in RPMI-1640 medium (Corning) containing 2 mM L-glutamine and supplemented with 100 IU/mL penicillin/streptomycin and 10% fetal bovine serum (FBS; Sigma-Aldrich, St Louis, MO, USA). HCT116 cells were treated in 96-well-black plates for 48 h with increased concentrations of […]. Quantification of ROS production was measured using 20 μM of the fluorescent probe 2′,7′-dichlorodihydrofluorescein diacetate DCFDA (Sigma Aldrich). The relative fluorescence emission was followed at 520 nm using VICTOR plate reader (VICTOR™ Multilabel Counter, Perkin Elmer) and was normalized to total protein content using BCA test. Total ROS production was presented as percentage with respect to the control (DMSO treated cells) that was set as 100%. Statistical analysis was performed using one-way ANOVA followed by the Bonferroni post hoc comparison test. p < 0.05 was considered significant. Data are representative of three independent experiments with similar results.
Reactive oxygen species (ROS) play important roles in cell growth and differentiation, metabolism and apoptosis. […] We measured the ability of compounds (S)-1 and (R)-1 to generate ROS in HCT116 cells using the fluorescent probe 2′,7′-dichlorodihydrofluorescein diacetate DCFDA. The ROS production (%) upon 48 h treatment was determined with increasing concentrations of (S)-1 or (R)-1. […]

| Compound | EC50 [1] [µM] | Inhibition of NHERF1 PDZ1 domain [2] | Effect on binding between DVL1 PDZ and TMEM88 peptide [3] | EC50 [4] [µM] | ROS production [5] |
| --- | --- | --- | --- | --- | --- |
| Cc1cc(C)cc(S(=O)(=O)c2c(C(=O)N[C@H](C)C(=O)NCc3ccncc3)[nH]c3ccc(Cl)cc23)c1 [(R)-1] | 59.5 ± 2.1 | did not show inhibitory activity; also recorded: did not bind | abolished the binding | 19.49 ± 0.06 |  |
| Cc1cc(C)cc(S(=O)(=O)c2c(C(=O)NC(C)C(=O)NCc3ccncc3)[nH]c3ccc(Cl)cc23)c1 (stereo not shown) [Compound 1] | 39.2 ± 1.58 |  |  | 3.46 ± 0.07 |  |
| Cc1cc(C)cc(S(=O)(=O)c2c(C(=O)N[C@@H](C)C(=O)NCc3ccncc3)[nH]c3ccc(Cl)cc23)c1 [(S)-1, (S)-5-Chloro-3-((3,5-dimethylphenyl)sulfonyl)-N-(1-oxo-1-((pyridin-4-ylmethyl)amino)propan-2-yl)-1H-indole-2-carboxamide] | 55 ± 2.2 | did not show inhibitory activity; also recorded: did not bind | abolished the binding |  | high level of ROS production; also recorded: superior to (R)-1 at any tested compound concentration; also recorded: higher level of ROS production |

From publication PMC8909805, “Anticancer Activity of (S)-5-Chloro-3-((3,5-dimethylphenyl)sulfonyl)-N-(1-oxo-1-((pyridin-4-ylmethyl)amino)propan-2-yl)-1H-indole-2-carboxamide (RS4690), a New Dishevelled 1 Inhibitor” (Cancers, 2022)
